{
  "source": "patent US20050250752A1",
  "about": "“Cembranoids with chemopreventive activity” (priority 2002, published 2005)",
  "key": {"[1]": {"tested_on": "Epstein-Barr virus early antigen (EBV-EA) of Raji cells induced by tumor promoter (TPA)", "experiment": "Inhibition of EBV-EA activation induced by TPA in Raji cells", "format": "cell-based", "conditions": "TPA 32 pmol, Raji cells, 48 h", "protocol": "(§1) The inhibition of EBV-EA activation was assayed using Raji cells (virus non-producer type). The indicator cells (Raji, 1×10^6/ml) were incubated at 37° C. for 48 h in 1 ml of medium containing n-butyric acid (4 mmol), TPA(12-O-tetradecanoylphorbol 13-acetate)(32 pmol=20 ng in 2 μl DMSO) as inducer and various amounts of test compounds in 5 μl DMSO. Smears were made from the cell suspension, and the activated cells, which were stained by EBV-EA positive serum from nasopharygeal carcinoma patients were detected by an indirect immunofluorescence technique. For each compound, assays were performed in triplicate. The average EBV-EA induction of the test compounds was expressed as a relative ratio to the control experiment (100%), which was carried out only with n-butyric acid plus TPA. The viability of treated Raji cells was assayed by the Trypan Blue staining method."}, "Raji cells": {"tested_on": "Raji cells", "experiment": "Viability of treated Raji cells (Trypan Blue staining)", "format": "cell-based", "protocol": "as §1"}, "[2]": {"tested_on": "papillomas (mouse skin carcinogenesis induced by DMBA/TPA)", "experiment": "Two-stage mouse skin carcinogenesis model induced by DMBA/TPA", "format": "in vivo, mouse (female ICR)", "conditions": "topical 85 nm 1 hour before TPA, ICR mice", "protocol": "In the two-stage mouse skin carcinogenesis model induced by DMBA/TPA, the animals (specific pathogen-free female ICR, 6 weeks old) were divided into 5 groups, 15 mice each. The back of each mouse was shaved with surgical clippers, and the mice were topically treated with DMBA (100 μg, 390 nmol) in acetone (0.1 ml) as an initiation treatment. For the positive control group, 1 week after initiation with DMBA, mice were promoted by the application with TPA (1 μg, 1.7 nmol) in acetone (0.1 ml) twice a week. The other four groups received a topical application of each of the sarcophine semi-synthetic derivatives (85 nm) 1 hour before application of the tumor promoter. The incidence of papillomas was observed weekly for 20 weeks. The percentage of mice bearing papillomas and the average number of papillomas per mouse were recorded."}, "[3]": {"conditions": "x 1000 mol ratio/TPA (32 nmol/mL)"}},
  "data": [
    {"smiles": "CC1=CC=C([C@@](C)(O)CO)C[C@H](O)C(C)=CCCC2(C)OC2CC1", "note": "(stereo partly drawn) [Compound 12, 7,8-Epoxy-1,3,11-cembratriene-13S(β),15R(α),16-triol]", "values": [
      {"measurement": "EBV-EA induction, percentage relative to the positive control value (100%)", "setting": "[1]; x 10 mol ratio/TPA", "result": 93.8, "unit": "%"},
      {"measurement": "EBV-EA induction, percentage relative to the positive control value (100%)", "setting": "[1]; x 100 mol ratio/TPA", "result": 74.6, "unit": "%"},
      {"measurement": "EBV-EA induction, percentage relative to the positive control value (100%)", "setting": "[1]; x 500 mol ratio/TPA", "result": 55.8, "unit": "%"},
      {"measurement": "EBV-EA induction, percentage relative to the positive control value (100%)", "setting": "[1]; [3]", "result": 5.9, "unit": "%"},
      {"measurement": "viability percentage of Raji cells (indicator cells)", "setting": "Raji cells; x 10 mol ratio/TPA", "result": "> 80", "unit": "%"},
      {"measurement": "viability percentage of Raji cells (indicator cells)", "setting": "Raji cells; x 100 mol ratio/TPA", "result": "> 80", "unit": "%"},
      {"measurement": "viability percentage of Raji cells (indicator cells)", "setting": "Raji cells; x 500 mol ratio/TPA", "result": "> 80", "unit": "%"},
      {"measurement": "viability percentage of Raji cells (indicator cells)", "setting": "Raji cells; [3]", "result": 60, "unit": "%"},
      {"measurement": "Papilloma Bearer (%)", "setting": "[2]; week 1 of promotion", "result": 0.0, "unit": "%"},
      {"measurement": "Papillomas/mouse", "setting": "[2]; week 1 of promotion", "result": 0.0},
      {"measurement": "Papilloma Bearer (%)", "setting": "[2]; week 2 of promotion", "result": 0.0, "unit": "%"},
      {"measurement": "Papillomas/mouse", "setting": "[2]; week 2 of promotion", "result": 0.0},
      {"measurement": "Papilloma Bearer (%)", "setting": "[2]; week 3 of promotion", "result": 0.0, "unit": "%"},
      {"measurement": "Papillomas/mouse", "setting": "[2]; week 3 of promotion", "result": 0.0},
      {"measurement": "Papilloma Bearer (%)", "setting": "[2]; week 4 of promotion", "result": 0.0, "unit": "%"},
      {"measurement": "Papillomas/mouse", "setting": "[2]; week 4 of promotion", "result": 0.0},
      {"measurement": "Papilloma Bearer (%)", "setting": "[2]; week 5 of promotion", "result": 0.0, "unit": "%"},
      {"measurement": "Papillomas/mouse", "setting": "[2]; week 5 of promotion", "result": 0.0},
      {"measurement": "Papilloma Bearer (%)", "setting": "[2]; week 6 of promotion", "result": 0.0, "unit": "%"},
      {"measurement": "Papillomas/mouse", "setting": "[2]; week 6 of promotion", "result": 0.0},
      {"measurement": "Papilloma Bearer (%)", "setting": "[2]; week 7 of promotion", "result": 0.0, "unit": "%"},
      {"measurement": "Papillomas/mouse", "setting": "[2]; week 7 of promotion", "result": 0.0},
      {"measurement": "Papilloma Bearer (%)", "setting": "[2]; week 8 of promotion", "result": 13.3, "unit": "%"},
      {"measurement": "Papillomas/mouse", "setting": "[2]; week 8 of promotion", "result": 0.2},
      {"measurement": "Papilloma Bearer (%)", "setting": "[2]; week 9 of promotion", "result": 20.0, "unit": "%"},
      {"measurement": "Papillomas/mouse", "setting": "[2]; week 9 of promotion", "result": 0.5},
      {"measurement": "Papilloma Bearer (%)", "setting": "[2]; week 10 of promotion", "result": 26.6, "unit": "%"},
      {"measurement": "Papillomas/mouse", "setting": "[2]; week 10 of promotion", "result": 1.1},
      {"measurement": "Papilloma Bearer (%)", "setting": "[2]; week 11 of promotion", "result": 33.3, "unit": "%"},
      {"measurement": "Papillomas/mouse", "setting": "[2]; week 11 of promotion", "result": 1.5},
      {"measurement": "Papilloma Bearer (%)", "setting": "[2]; week 12 of promotion", "result": 33.3, "unit": "%"},
      {"measurement": "Papillomas/mouse", "setting": "[2]; week 12 of promotion", "result": 2.0},
      {"measurement": "Papilloma Bearer (%)", "setting": "[2]; week 13 of promotion", "result": 40.0, "unit": "%"},
      {"measurement": "Papillomas/mouse", "setting": "[2]; week 13 of promotion", "result": 2.2},
      {"measurement": "Papilloma Bearer (%)", "setting": "[2]; week 14 of promotion", "result": 46.6, "unit": "%"},
      {"measurement": "Papillomas/mouse", "setting": "[2]; week 14 of promotion", "result": 2.7},
      {"measurement": "Papilloma Bearer (%)", "setting": "[2]; week 15 of promotion", "result": 53.3, "unit": "%"},
      {"measurement": "Papillomas/mouse", "setting": "[2]; week 15 of promotion", "result": 3.1},
      {"measurement": "Papilloma Bearer (%)", "setting": "[2]; week 16 of promotion", "result": 60.0, "unit": "%"},
      {"measurement": "Papillomas/mouse", "setting": "[2]; week 16 of promotion", "result": 3.7},
      {"measurement": "Papilloma Bearer (%)", "setting": "[2]; week 17 of promotion", "result": 66.6, "unit": "%"},
      {"measurement": "Papillomas/mouse", "setting": "[2]; week 17 of promotion", "result": 4.0},
      {"measurement": "Papilloma Bearer (%)", "setting": "[2]; week 18 of promotion", "result": 73.3, "unit": "%"},
      {"measurement": "Papillomas/mouse", "setting": "[2]; week 18 of promotion", "result": 4.1},
      {"measurement": "Papilloma Bearer (%)", "setting": "[2]; week 19 of promotion", "result": 73.3, "unit": "%"},
      {"measurement": "Papillomas/mouse", "setting": "[2]; week 19 of promotion", "result": 4.4},
      {"measurement": "Papilloma Bearer (%)", "setting": "[2]; week 20 of promotion", "result": 80.0, "unit": "%"},
      {"measurement": "Papillomas/mouse", "setting": "[2]; week 20 of promotion", "result": 4.6}
    ]}
  ]
}
